Measured values reported in patent publication US20090036448A1, “PYRIMIDINE DERIVATIVES AND METHODS OF TREATMENT RELATED TO THE USE THEREOF” (TAISHO PHARMECUTICAL CO., LTD., priority 2004, published 2009).
Structures can show the parent of a compound that is named as a salt.

biological target: MCH receptor (Homo sapiens, UniProt Q99705); experiment: FLIPR/FDSS6000 functional assay: intracellular Ca2+ changes evoked by MCH; type: cell-based; settings: class by percent of control at 10^−7 M or by IC50; antagonist activity, 50 nM of MCH; read-out: class
Text: Subsequently, a functional based assay was used to confirm the lead hits, referred to as FLIPR™ (the Fluorometric Imaging Plate Reader) and FDSS6000™ (Functional Drug Screening System). This assay utilized a non-endogenous, constitutively active version of the MCH receptor.
The FLIPR and FDSS assays are able to detect intracellular Ca^2+ concentration in cells, which can be utilized to assess receptor activation and determine whether a candidate compound is an, for example, antagonist, inverse agonist or agonist to a Gq-coupled receptor. The concentration of free Ca^2+ in the cytosol of any cell is extremely low, whereas its concentration in the extracellular fluid and endoplasmic reticulum (ER) is very high. Thus, there is a large gradient tending to drive Ca^2+ into the cytosol across both the plasma membrane and ER. The FLIPR™ and FDSS6000™ systems (Molecular Devices Corporation, HAMAMATSU Photonics K.K.) are designed to perform functional cell-based assays, such as the measurement of intracellular calcium for high-throughput screening. The measurement of fluorescent is associated with calcium release upon activation of the Gq-coupled receptors.
Fluorometric Imaging Plate Reader system was used to allow for rapid, kinetic measurements of intracellular fluorescence in 96 well microplates (or 384 well microplates). Simultaneous measurements of fluorescence in all wells can be made by FLIPR or FDSS6000™ every second with high sensitivity and precision. These systems are ideal for measuring cell-based functional assays such as monitoring the intracellular calcium fluxes that occur within seconds after activation of the Gq coupled receptor.
Briefly, the cells are seeded into 96 well at 5.5×10^4 cells/well with complete culture media (Dulbecco's Modified Eagle Medium with 10% fetal bovine serum, 2 mM L-glutamine, 1 mM sodium pyruvate and 0.5 mg/mL G418, pH 7.4) for the assay next day. On the day of assay, the media is removed and the cells are incubated with 100 μl of loading buffer (4 μM Fluo-4-AM in complete culture media containing 2.5 mM Probenicid, 0.5 mg/ml and 0.2% bovine serum albumin) in 5% CO2 incubator at 37° C. for 1 hr. The loading buffer is removed, and the cells are washed with wash buffer (Hank's Balanced Salt Solution containing 2.5 mM Probenicid, 20 mM HEPES, 0.5 mg/mL and 0.2% bovine serum albumin, pH 7.4). One hundred fifty μl of wash buffer containing various concentrations of test compound is added to the cells, and the cells are incubated in 5% CO2 incubator at 37° C. for 30 min. Fifty μl of wash buffer containing various concentration of MCH are added to each well, and transient changes in [Ca^2+]i evoked by MCH are monitored using the FLIPR or FDSS in 96 well plates at Ex. 488 nm and Em. 530 nm for 290 second. When antagonist activity of compound is tested, 50 nM of MCH is used.
Use of FLIPR™ and FDSS6000™ can be accomplished by following manufacturer's instruction (Molecular Device Corporation and HAMAMATSU Photonics K.K.).

SMILES	IC50 [nM]
Cc1nc(N[C@H]2CC[C@@H](CNC(=O)c3ccc(F)c(F)c3)CC2)cc(N(C)C)n1 [Example 29, N-[(cis-4-{[6-(Dimethylamino)-2-methylpyrimidin-4-yl]amino}cyclohexyl)methyl]-3,4-difluorobenzamide hydrochloride]	> 200
CNc1cc(N[C@H]2CC[C@@H](NC(=O)c3ccc(F)c(F)c3)CC2)nc(C)n1 [Example 30, 3,4-Difluoro-N-(cis-4-{[2-methyl-6-(methylamino)pyrimidin-4-yl]amino}cyclohexyl)-benzamide hydrochloride]	> 200
CNc1cc(N[C@H]2CC[C@@H](NC(=O)c3ccc(F)c(Cl)c3)CC2)nc(C)n1 [Example 31, 3-Chloro-4-fluoro-N-(cis-4-{[2-methyl-6-(methylamino)pyrimidin-4-yl]amino}cyclohexyl)-benzamide hydrochloride]	50 to 200
CCc1nc(N[C@H]2CC[C@@H](NC(=O)c3ccc(F)c(F)c3)CC2)cc(N(C)C)n1 [Example 32, N-(cis-4-{[6-(Dimethylamino)-2-ethylpyrimidin-4-yl]amino}cyclohexyl)-3,4-difluorobenzamide hydrochloride]	< 50
CN(C)c1cc(N[C@H]2CC[C@@H](NC(=O)c3ccc(F)c(F)c3)CC2)nc(N(C)C)n1 [Example 33, N-(cis-4-{[2,6-bis(Dimethylamino)pyrimidin-4-yl]amino}cyclohexyl)-3,4-difluorobenzamide hydrochloride]	50 to 200
CCNc1nccc(N[C@H]2CC[C@@H](NC(=O)c3ccc(F)c(F)c3)CC2)n1 [Example 34, N-(cis-4-{[2-(Ethylamino)pyrimidin-4-yl]amino}cyclohexyl)-3,4-difluorobenzamide hydrochloride]	> 200
CCN(C)c1nccc(N[C@H]2CC[C@@H](NC(=O)c3ccc(F)c(F)c3)CC2)n1 [Example 35, N-[cis-4-({2-[Ethyl(methyl)amino]pyrimidine-4-yl}amino)cyclohexyl]-3,4-difluorobenzamide hydrochloride]	> 200
CN(CCO)c1nccc(N[C@H]2CC[C@@H](NC(=O)c3ccc(F)c(F)c3)CC2)n1 [Example 36, 3,4-Difluoro-N-[cis-4-({2-[(2-hydroxyethyl)(methyl)amino]pyrimidin-4-yl}amino)-cyclohexyl]benzamide hydrochloride]	> 200
Cc1nc(N[C@H]2CC[C@@H](NC(=O)c3ccc(F)c(Cl)c3)CC2)cc(N2CCCCC2)n1 [Example 37, 3-Chloro-4-fluoro-N-{cis-4-[(2-methyl-6-piperidin-1-ylpyrimidin-4-yl)amino]cyclohexyl}-benzamide hydrochloride]	> 200
Cc1nc(N[C@H]2CC[C@@H](NC(=O)c3ccc(F)c(Cl)c3)CC2)cc(-n2ccnc2)n1 [Example 38, 3-Chloro-4-fluoro-N-(cis-4-{[6-(1H-imidazol-1-yl)-2-methylpyrimidin-4-yl]amino}cyclohexyl)-benzamide dihydrochloride]	> 200
Cc1nc(N[C@H]2CC[C@@H](NC(=O)c3ccc(F)c(Cl)c3)CC2)cc(N2CCOCC2)n1 [Example 39, 3-Chloro-4-fluoro-N-{cis-4-[(2-methyl-6-morpholin-4-ylpyrimidin-4-yl)amino]cyclohexyl}-benzamide hydrochloride]	50 to 200
Cc1nc(N[C@H]2CC[C@@H](NC(=O)c3ccc(F)c(Cl)c3)CC2)cc(N2CCCC2)n1 [Example 40, 3-Chloro-4-fluoro-N-{cis-4-[(2-methyl-6-pyrrolidin-1-ylpyrimidin-4-yl)amino]cyclohexyl}-benzamide hydrochloride]	< 50
Cc1nc(N[C@H]2CC[C@@H](NC(=O)c3ccc(F)c(Cl)c3)CC2)cc(N2CCN(C)CC2)n1 [Example 41, 3-Chloro-4-fluoro-N-(cis-4-{[2-methyl-6-(4-methylpiperazin-1-yl)pyrimidin-4-yl]amino}-cyclohexyl)benzamide dihydrochloride]	> 200
Cc1cc(N[C@H]2CC[C@@H](NC(=O)c3ccc(F)c(F)c3)CC2)nc(N(C)C)n1 [Example 43, N-(cis-4-{[2-(Dimethylamino)-6-methylpyrimidin-4-yl]amino}cyclohexyl)-3,4-difluorobenzamide hydrochloride]	50 to 200
CN(C)c1nccc(N[C@H]2CC[C@@H](NC(=O)c3ccc(F)c(Cl)c3)CC2)n1 [Example 44, 3-Chloro-N-(cis-4-{[2-(dimethylamino)pyrimidin-4-yl]amino}cyclohexyl)-4-fluorobenzamide hydrochloride]	< 50
Cc1cc(N[C@H]2CC[C@@H](NC(=O)c3ccc(F)c(Cl)c3)CC2)nc(N(C)C)n1 [Example 45, 3-Chloro-N-(cis-4-{([2-(dimethylamino)-6-methylpyrimidin-4-yl]amino}cyclohexyl)-4-fluorobenzamide hydrochloride]	50 to 200
Cc1cnc(N(C)C)nc1N[C@H]1CC[C@@H](NC(=O)c2ccc(F)c(Cl)c2)CC1 [Example 46, 3-Chloro-N-(cis-4-{[2-(dimethylamino)-5-methylpyrimidin-4-yl]amino}cyclohexyl)-4-fluorobenzamide hydrochloride]	> 200
CN(C)c1cc(N[C@H]2CC[C@@H](NC(=O)c3ccc(F)c(Cl)c3)CC2)nc(C(F)(F)F)n1 [Example 47, 3-Chloro-N-(cis-4-{[6-(dimethylamino)-2-(trifluoromethyl)pyrimidin-4-yl]amino}cyclohexyl)-4-fluorobenzamide hydrochloride]	> 200
Cc1nc(N)cc(N[C@H]2CC[C@@H](NC(=O)c3cc(F)c(F)c(F)c3)CC2)n1 [Example 168, N-{cis-4-[(6-Amino-2-methylpyrimidin-4-yl)amino]cyclohexyl}-3,4,5-trifluorobenzamide hydrochloride]	> 200
CNc1cc(N[C@H]2CC[C@@H](NC(=O)c3cc(F)c(F)c(F)c3)CC2)nc(C)n1 [Example 169, 3,4,5-Trifluoro-N-(cis-4-{[2-methyl-6-(methylamino)pyrimidin-4-yl]amino}cyclohexyl)-benzamide hydrochloride]	50 to 200
Cc1cc(N[C@H]2CC[C@@H](NC(=O)c3ccc(F)c(Cl)c3)CC2)nc(C)n1 [Example 171, 3-Chloro-N-{cis-4-[(2,6-dimethylpyrimidin-4-yl)amino]cyclohexyl}-4-fluorobenzamide hydrochloride]	> 200
Cc1nc(Cl)cc(N[C@H]2CC[C@@H](NC(=O)c3cc(F)c(F)c(F)c3)CC2)n1 [Example 172, N-{cis-4-[(6-Chloro-2-methylpyrimidin-4-yl)amino]cyclohexyl}-3,4,5-trifluorobenzamide]	> 200
Cc1nc(NC2CC2)cc(N[C@H]2CC[C@@H](NC(=O)c3cc(F)c(F)c(F)c3)CC2)n1 [Example 173, N-(cis-4-{[6-(Cyclopropylamino)-2-methylpyrimidin-4-yl]amino}cyclohexyl)-3,4,5-trifluorobenzamide hydrochloride]	> 200
Cc1nc(N[C@H]2CC[C@@H](NC(=O)c3cc(F)c(F)c(F)c3)CC2)cc(N(C)c2ccccc2)n1 [Example 174, 3,4,5-Trifluoro-N-[cis-4-({2-methyl-6-[methyl(phenyl)amino]pyrimidin-4-yl}amino)-cyclohexyl]benzamide hydrochloride]	> 200
Cc1nc(N[C@H]2CC[C@@H](NC(=O)c3cc(F)c(F)c(F)c3)CC2)cc(N(C)Cc2ccccc2)n1 [Example 175, N-[cis-4-({6-[Benzyl(methyl)amino]-2-methylpyrimidin-4-yl}amino)cyclohexyl]-3,4,5-trifluorobenzamide hydrochloride]	> 200
CCN(C)c1cc(N[C@H]2CC[C@@H](NC(=O)c3cc(F)c(F)c(F)c3)CC2)nc(C)n1 [Example 176, N-[cis-4-({6-[Ethyl(methyl)amino]-2-methylpyrimidin-4-yl}amino)cyclohexyl]-3,4,5-trifluorobenzamide hydrochloride]	> 200
CCc1nc(N[C@H]2CC[C@@H](NC(=O)c3cc(F)c(F)c(F)c3)CC2)cc(N(C)C)n1 [Example 177, N-(cis-4-{[6-(Dimethylamino)-2-ethylpyrimidin-4-yl]amino}cyclohexyl)-3,4,5-trifluorobenzamide hydrochloride]	< 50
